# Experimental data from US7468150B2, “Synthesis of conducto-magnetic polymers as nano-transducers in biosensor design” (Board of Trustees of Michigan State University, priority 2005, dated 2008).
# How the values were obtained:
# Type in all cases: physicochemical
# [1] = Conductivities of polymers and nanocomposites in solution (Acorn TDS 5 Meter); conditions: solvent as given in the compound name
# Method: In order to characterize […] and related compounds, several methods were utilized. First, the DC SQUID (Superconducting Quantum Interference Device) magnetometer was used to measure magnetization of solid […] after 3 weeks and the […] base (control). Absorbance checks using spectrophotometer were performed on […] in solution. Conductivities in solution of […] were gauged by Acorn® TDS 5 Meter. […] To create β-carotene nanocomposites, the use of an appropriate solvent was crucial. […] Solutions of β-carotene nanocomposites were characterized by absorbance checks and conductivity measurements. […] Mixtures of β-carotene […] various other PANi-derived polymers are attained forming a variety of other composites.
# [2] = Solubility of β-carotene in kwik-dri; conditions: crudely determined
# Method: (§1) β-carotene nanocomposites: To create β-carotene nanocomposites, the use of an appropriate solvent was crucial. Acetone, toluene, kwik-dri, and tetrahydrofuran (THF) were tested. The solubility of β-carotene in kwik-dri, a non-aromatic industrial solvent similar to toluene, was crudely determined. Solutions of β-carotene nanocomposites were characterized by absorbance checks and conductivity measurements. […] Mixtures of β-carotene with PANi emeraldine salt and various other PANi-derived polymers are attained forming a variety of other composites.
# [3] = Degradability of β-carotene in toluene by absorbance over time; conditions: absorbance graphs over several days
# Method: as §1
smiles,measurement,setting,value
CC1=C(/C=C/C(C)=C/C=C/C(C)=C/C=C/C=C(C)/C=C/C=C(C)/C=C/C2=C(C)CCCC2(C)C)C(C)(C)CCC1 [β-carotene],Conductivity,[1],~0 μS
same,Conductivity,[1]; listed as Kwik-dri + β-carotene,0.15 μS
same,Conductivity,[1]; listed as THF + β-carotene,~0 μS
same,Solubility,[2],500 µg/mL
same,Degradability,[3],degradability in toluene was demonstrated
